Experimental data: patent publication US11944624B2, “Peptide and small molecule agonists of EphA and their uses” (CASE WESTERN RESERVE UNIVERSITY, priority 2017, dated 2024)

Key:
[1] = target: endogenous EphA2 (Homo sapiens, UniProt P29317); assay: EphA2 internalization in parental MDA-MB-231 cells (immunofluorescence, Example 1); type: cell-based; parameters: host or cells: MDA-MB-231 (parental); details: 50 μM, two hours
Procedure: (§1) Cells were plated in 24-well dishes at a density of 100,000 cells/well and grown for 24 hours prior to stimulation with appropriate compounds and ephrins for the given amounts of time. Compounds were prepared in DMSO at 500 times the final concentrations and 0.2% DMSO was used as vehicle control. Following treatment, cells were lysed directly in SDS Gel Loading Buffer and immunoblotted as described previously. Immunoprecipitation and immunofluorescence staining was performed as described. For immunoprecipitation, 300,000 cells/well were plated in 6-well dishes and lysed in modified RIPA Buffer (20 mM Tris-HCl pH 7.4, 20 mM NaF, 150 mM NaCl, 10% glycerol, 0.1% SDS, 0.5% DCA, 2 mM EDTA, 1% Triton X-100) following treatment. Either 10 μg of ephrin-A1-Fc, or […] of EphA2 mouse monoclonal antibody (Clone D7, Millipore) were used, and mouse IgG was used as a negative control for EphA2 IP.
(§2) Similar to other receptor tyrosine kinases, activation of the EphA2 receptor by its ligand, ephrin-A1, results in receptor internalization and eventual degradation. […] This was first performed using the U373 glioma cell line engineered to overexpress EphA2.

[2] = target: T1, rat α1a adrenergic receptor (Rattus norvegicus, UniProt P43140); assay: Adrenoceptor binding, [3H]-prazosin competition; details: [3H]-prazosin 0.25 nM, triplicate, mean±SD; read-out: IC50, α-adrenoceptor binding
T1 construct: Eurofins Panlabs Taiwan, Ltd. (contract assay)
T1 sequence (P43140 1-466): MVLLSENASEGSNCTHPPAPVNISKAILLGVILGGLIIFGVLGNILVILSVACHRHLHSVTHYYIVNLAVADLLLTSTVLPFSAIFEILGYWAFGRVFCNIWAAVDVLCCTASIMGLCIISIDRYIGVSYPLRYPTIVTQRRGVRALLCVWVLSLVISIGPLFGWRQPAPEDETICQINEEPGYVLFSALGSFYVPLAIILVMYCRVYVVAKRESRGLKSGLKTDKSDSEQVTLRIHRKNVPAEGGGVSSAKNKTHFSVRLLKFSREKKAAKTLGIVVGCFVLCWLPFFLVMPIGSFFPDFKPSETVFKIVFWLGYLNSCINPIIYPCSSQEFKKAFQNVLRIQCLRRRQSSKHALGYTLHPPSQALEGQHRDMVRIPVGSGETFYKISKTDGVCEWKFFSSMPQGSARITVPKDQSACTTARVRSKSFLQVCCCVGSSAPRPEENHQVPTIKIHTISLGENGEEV
Procedure: Analysis of Doxazosin and analog binding to rat α1a adrenergic receptor was performed by Eurofins Panlabs Taiwan, Ltd. (Taiwan). [^3H]-prazosin at 0.25 nM was used as the radioligand. […] Non-specific binding was defined by use of 10 μM phentolamine. Incubations were terminated by vacuum filtration over 0.1% PEI pretreated glass fiber filters and filters were washed for 10 s with ice cold 0.1M NaCl and radioactivity retained on the filters was determined by liquid scintillation spectrometry. IC50 values were determined by a non-linear regression analysis using GraphPad Prism v.5 (GraphPad).

[3] = target: EphA2 (Homo sapiens, UniProt P29317); assay: EphA2 internalization in U373-A2 cells (immunofluorescence); type: cell-based; parameters: expressed in transfected cells; details: 60 min, DZ 50 μM, ephrin-A1-Fc 1 μg/ml
Chain of EphA2 (P29317 24-976): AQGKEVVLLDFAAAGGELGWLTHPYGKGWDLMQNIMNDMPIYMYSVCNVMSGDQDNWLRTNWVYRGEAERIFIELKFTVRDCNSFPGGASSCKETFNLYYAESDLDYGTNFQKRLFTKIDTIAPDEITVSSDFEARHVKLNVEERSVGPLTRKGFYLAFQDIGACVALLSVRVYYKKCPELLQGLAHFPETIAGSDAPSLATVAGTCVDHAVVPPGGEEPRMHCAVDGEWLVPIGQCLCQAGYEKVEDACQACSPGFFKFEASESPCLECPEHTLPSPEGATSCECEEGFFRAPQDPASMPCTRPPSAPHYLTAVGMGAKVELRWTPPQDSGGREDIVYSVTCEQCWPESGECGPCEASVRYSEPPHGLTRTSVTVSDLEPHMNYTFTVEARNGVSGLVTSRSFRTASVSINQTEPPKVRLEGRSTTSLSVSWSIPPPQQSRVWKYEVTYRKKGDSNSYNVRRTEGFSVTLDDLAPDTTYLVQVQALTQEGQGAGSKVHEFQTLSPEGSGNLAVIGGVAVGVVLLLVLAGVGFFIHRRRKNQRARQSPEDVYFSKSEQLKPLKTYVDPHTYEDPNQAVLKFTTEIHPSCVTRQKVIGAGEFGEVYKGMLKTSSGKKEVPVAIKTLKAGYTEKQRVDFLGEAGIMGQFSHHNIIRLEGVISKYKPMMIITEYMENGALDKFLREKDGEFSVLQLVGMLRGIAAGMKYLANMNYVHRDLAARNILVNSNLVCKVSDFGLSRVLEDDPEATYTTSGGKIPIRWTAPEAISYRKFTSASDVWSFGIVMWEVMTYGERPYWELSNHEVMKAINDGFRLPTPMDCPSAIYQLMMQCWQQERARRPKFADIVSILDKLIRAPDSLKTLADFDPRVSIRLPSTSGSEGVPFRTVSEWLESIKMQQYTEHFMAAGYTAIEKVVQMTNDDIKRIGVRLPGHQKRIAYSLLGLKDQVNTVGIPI
Procedure: as §1, §2

[4] = test system: PC-3 cells; assay: Cell rounding of PC-3 cells; type: cell-based, human; parameters: dose or concentration left out as unconfirmed
Description: As we first reported in 2000, EphA2 activation on PC-3 cells by ephrin-A1 induced rapid cell rounding, a phenomenon that is correlated with inhibition of integrin function.

[5] = test system: PC3-DAB2IP KD cells; assay: Haptotactic cell migration toward fibronectin, PC3-DAB2IP KD; type: cell-based, human; details: 4 hours
Description: One of the well-established functions of Eph receptors is the ligand-dependent repulsive guidance of cell migration. As a ligand-mimicking agonist for EphA2, doxazosin is expected to activate EphA2 on tumor cells and repulse migrating tumor cells in vitro. To test this possibility, we first investigated the effects of doxazosin on integrin-mediated haptotactic cell migration toward fibronectin in a modified Boyden chamber cell migration assay. […] The inhibitory effects were observed when doxazosin was presented either in the bottom chamber, or in both top and bottom chambers in the Transwell assay system. […] Therefore, doxazosin can recapitulate a key function attributed to its native ligands, i.e., negative regulation of cell migration.

[6] = target: T2, endogenous EphB4 (Homo sapiens, UniProt P54760); assay: Endogenous EphB4 activation in HEK 293 vector control cells; type: cell-based
T2 construct: host or cells: HEK 293 (vector control)
T2 sequence (P54760 16-987): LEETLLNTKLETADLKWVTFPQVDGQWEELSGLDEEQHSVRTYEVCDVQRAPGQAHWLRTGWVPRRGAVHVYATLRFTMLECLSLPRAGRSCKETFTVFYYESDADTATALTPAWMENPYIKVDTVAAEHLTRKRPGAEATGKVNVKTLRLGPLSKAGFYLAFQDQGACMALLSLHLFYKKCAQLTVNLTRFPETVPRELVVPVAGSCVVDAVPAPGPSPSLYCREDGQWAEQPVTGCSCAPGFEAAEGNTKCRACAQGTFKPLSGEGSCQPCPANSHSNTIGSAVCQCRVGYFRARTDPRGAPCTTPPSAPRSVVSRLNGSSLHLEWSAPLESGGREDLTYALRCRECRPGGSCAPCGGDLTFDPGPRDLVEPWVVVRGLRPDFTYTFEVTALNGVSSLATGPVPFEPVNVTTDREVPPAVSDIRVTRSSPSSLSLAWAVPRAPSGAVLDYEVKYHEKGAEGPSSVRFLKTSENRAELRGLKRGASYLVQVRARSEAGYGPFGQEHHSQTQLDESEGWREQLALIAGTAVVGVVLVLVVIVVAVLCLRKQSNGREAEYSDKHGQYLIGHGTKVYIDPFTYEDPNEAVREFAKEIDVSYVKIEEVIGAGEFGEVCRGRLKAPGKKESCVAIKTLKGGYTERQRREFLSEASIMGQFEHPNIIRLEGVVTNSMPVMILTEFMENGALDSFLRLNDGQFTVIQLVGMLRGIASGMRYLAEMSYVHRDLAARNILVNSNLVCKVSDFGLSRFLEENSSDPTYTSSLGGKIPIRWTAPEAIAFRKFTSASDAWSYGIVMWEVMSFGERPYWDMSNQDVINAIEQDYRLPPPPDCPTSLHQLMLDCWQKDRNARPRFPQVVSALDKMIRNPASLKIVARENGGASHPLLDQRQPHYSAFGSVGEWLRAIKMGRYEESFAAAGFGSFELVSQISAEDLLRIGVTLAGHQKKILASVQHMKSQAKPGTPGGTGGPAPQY
Procedure: Cells were plated in 24-well dishes at a density of 100,000 cells/well and grown for 24 hours prior to stimulation with appropriate compounds and ephrins for the given amounts of time. Compounds were prepared in DMSO at 500 times the final concentrations and 0.2% DMSO was used as vehicle control. Following treatment, cells were lysed directly in SDS Gel Loading Buffer and immunoblotted as described previously. […] For immunoprecipitation, 300,000 cells/well were plated in 6-well dishes and lysed in modified RIPA Buffer (20 mM Tris-HCl pH 7.4, 20 mM NaF, 150 mM NaCl, 10% glycerol, 0.1% SDS, 0.5% DCA, 2 mM EDTA, 1% Triton X-100) following treatment. Either 10 μg of ephrin-A1-Fc, or 4 mg of EphA2 mouse monoclonal antibody (Clone D7, Millipore) were used, and mouse IgG was used as a negative control for EphA2 IP. […] For this purpose, HEK 293 cell lines overexpressing EphA1, EphA2, EphA3, EphA4, and EphB3 kinases were utilized.

Chain of endogenous EphA2 (P29317 24-976): as the sequence (P29317 24-976) above

SMILES: COc1cc2nc(N3CCN(C(=O)C4COc5ccccc5O4)CC3)nc(N)c2cc1OC (stereo not drawn) [Doxazosin, 2-[4-(2,3-Dihydro-1,4-benzodioxine-2-carbonyl)piperazin-1-yl]-6,7-dimethoxyquinazolin-4-amine]
- EphA2 internalization [1]: caused significant internalization of the endogenous EphA2
- IC50 [2]: 0.74 ± 0.3 nM
- EphA2 internalization [3]: stimulated significant EphA2 internalization
- cell rounding [4]: caused rounding of PC-3 cells
- haptotactic cell migration toward fibronectin [5]: dose-dependent inhibition of cell migration
- endogenous EphB4 activation [6]: endogenous EphB4 was not activated
